Assay results published in ChEMBL document CHEMBL4011590, “Structure-activity relationship studies on 3,5-dinitrophenyl tetrazoles as antitubercular agents” (Eur J Med Chem, 2017).
Converted amounts (≈) assume the structure as drawn.

Legend:
Format in all cases: functional
Staphylococcus aureus [1] = assay: Antibacterial activity against methicillin-resistant Staphylococcus aureus HK5996/08 after 24 hrs by broth microdilution method; settings: HK5996/08, 24 h
Enterococcus sp. = assay: Antibacterial activity against Enterococcus sp. HK14365/08 after 24 hrs by broth microdilution method; settings: HK14365/08, 24 h
[2] = test system: Staphylococcus epidermidis; assay: Antibacterial activity against Staphylococcus epidermidis HK6966/08 after 24 hrs by broth microdilution method; settings: HK6966/08, 24 h
Staphylococcus aureus [3] = assay: Antibacterial activity against Staphylococcus aureus ATCC 6538 after 24 hrs by broth microdilution method; settings: ATCC 6538, 24 h
Lichtheimia corymbifera = assay: Antifungal activity against Absidia corymbifera 272 after 24 hrs by broth microdilution method; settings: Lichtheimia corymbifera, 272, 24 h
Candida albicans = assay: Antifungal activity against Candida albicans ATCC 44859 after 24 hrs by broth microdilution method; settings: ATCC 44859, 24 h
Pichia kudriavzevii = assay: Antifungal activity against Candida krusei E28 after 24 hrs by broth microdilution method; settings: E28, 24 h
Aspergillus fumigatus = assay: Antifungal activity against Aspergillus fumigatus 231 after 24 hrs by broth microdilution method; settings: Aspergillus fumigatus, 231, 24 h
Nakaseomyces glabratus = assay: Antifungal activity against Candida glabrata 20/I after 24 hrs by broth microdilution method
Candida tropicalis = assay: Antifungal activity against Candida tropicalis 156 after 24 hrs by broth microdilution method; settings: Candida tropicalis, 156, 24 h
[4] = test system: Trichophyton mentagrophytes; assay: Antifungal activity against Trichophyton mentagrophytes 445 after 72 hrs by broth microdilution method; settings: Trichophyton mentagrophytes, 445, 72 h
Trichosporon asahii = assay: Antifungal activity against Trichosporon asahii 1188 after 24 hrs by broth microdilution method; settings: Trichosporon asahii, 1188, 24 h

SMILES | MIC (Staphylococcus aureus [1]) [µM] | MIC (Enterococcus sp.) [µM] | MIC [2] [µM] | MIC (Staphylococcus aureus [3]) [µM] | MIC (Lichtheimia corymbifera) [µM] | MIC (Candida albicans) [µM] | MIC (Pichia kudriavzevii) [µM] | MIC (Aspergillus fumigatus) [µM] | MIC (Nakaseomyces glabratus) [µM] | MIC (Candida tropicalis) [µM] | MIC [4] [µM] | MIC (Trichosporon asahii) [µM]
CN[C@H](CC(C)C)C(=O)N[C@H]1C(=O)N[C@@H](CC(N)=O)C(=O)N[C@H]2C(=O)N[C@H]3C(=O)N[C@H](C(=O)N[C@H](C(=O)O)c4cc(O)cc(O)c4-c4cc3ccc4O)[C@H](O)c3ccc(c(Cl)c3)Oc3cc2cc(c3O[C@@H]2O[C@H](CO)[C@@H](O)[C@H](O)[C@H]2O[C@H]2C[C@](C)(N)[C@H](O)[C@H](C)O2)Oc2ccc(cc2Cl)[C@H]1O [VANCOMYCIN] | 0.35 (≈ 0.507 µg/mL) | 0.7 (≈ 1.01 µg/mL) | 0.35 (≈ 0.507 µg/mL) | 0.35 (≈ 0.507 µg/mL) |  |  |  |  |  |  |  | 
C[C@@H]1[C@H](O)[C@@H](C)/C=C/C=C/C=C/C=C/C=C/C=C/C=C/[C@H](O[C@@H]2O[C@H](C)[C@@H](O)[C@H](N)[C@@H]2O)C[C@@H]2O[C@](O)(C[C@@H](O)C[C@@H](O)[C@H](O)CC[C@@H](O)C[C@@H](O)CC(=O)O[C@H]1C)C[C@H](O)[C@H]2C(=O)O [AMPHOTERICIN B] |  |  |  |  | 1 (≈ 0.924 µg/mL) | 0.54 (≈ 0.499 µg/mL) | 1 (≈ 0.924 µg/mL) | 0.54 (≈ 0.499 µg/mL) | 0.54 (≈ 0.499 µg/mL) | 0.54 (≈ 0.499 µg/mL) | 0.54 (≈ 0.499 µg/mL) | 0.27 (≈ 0.25 µg/mL)
